The source of these data is patent US20240024299A1, “USE OF DRUGS THAT STIFFEN MATURE GAMETOCYTES FOR BLOCKING TRANSMISSION OF PLASMODIUM PARASITES” (INSERM (INSTITUT NATIONAL DE LA SANTÉ ET DE LA RECHERCHE …, priority 2020, published 2024).

Test [1] deals with P. falciparum gametocytes. Nature of the test: microsphiltration (spleen-mimetic microfilters) retention / stiffening of mature gametocytes, dose-response. The note with it: for IC50: Plasmodium falciparum, mature gametocytes, retention in microsphiltration, read-out: stiffening effect IC50; for activity by readout (readout 1 male and female gametocytes staining vs readout 2 specific female gametocytes staining): dose-response curves, data not shown. Format: cell-based, Plasmodium falciparum. The text has this:
FIG. 1. Screening progression cascade. ReFrame library (12,805 compounds), Kinase Inhibitors Box (350 compounds) and Pathogen Box (400 compounds) were screened with “microsphiltration” against P. falciparum gametocytes. Hits from primary screening were further selected by dose-response analysis (DRA). Confirmed 82 hits were divided in 7 groups, based on their activity and molecular target (data not shown). Hits repartition is shown in parenthesis, along with the name of one representative hit for each group. A score was assigned to each DRA confirmed hit, based on route of administration, safety in human clinical trials, pharmacokinetic and affordability for developing countries, leading to final selection of 3 hits for further in vitro and in vivo confirmation experiments.
FIG. 2. Representative single 384-wells plate scatterplots of primary screening. Each well of a screening plate is loaded with pre-spotted compounds while two columns are left for controls. They are represented as follows: empty circles for non-selected compounds and black circles for hits (352 wells), black squares for negative control (DMSO 0.05%, 16 wells), black squares for main positive control (NITD609 0.5 μM, 8 wells), light black empty squares for retention positive control (Calyculin A 75 nM, 6 wells), black squares for killing control (Gentian Violet 50 μM, 2 wells). For each well, killing and retention values are calculated and distributed in a “xy” graph. Two graphs are made for each plate: one using male and female gametocytes imaging (“readout 1”, left panel) and one using specific female gametocytes imaging (“readout 2”, right panel). For each graph, a linear regression (solid line) is tracked with 95% confidence interval (dashed lines). The compounds beyond the upper confidence interval in both readouts are identified as hits. A) Plate number 15 of ReFRAME library: 8 hits with readout 1, 11 hits with readout 2, 4 hits (shared between the two readouts) finally identified. B) Plate number 9 of ReFRAME library: 7 hits with readout 1, 11 hits with readout 2, 5 hits finally individuated, including NITD609 (highlighted with an arrow). In few cases, compounds with only killing effect were added to hitlist.
FIG. 4. Examples of dose-response curves (DRCs) of confirmed hits. Every hit from primary screening has been re-tested in duplicate (ReFrame library) and in triplicate (Kinase Inhibitors and Pathogen Box libraries) for dose-response, starting from 5 (10 μM for ReFrame hits) to 5 nM. For each of them, a DRC for killing and retention was tracked and IC50 was calculated (one for readout 1, male and female gametocytes staining, one for readout 2, specific female gametocytes staining). Error bars denote the standard deviation. The first curve is referred to killing effect and the second curve to retention effect normalized on DMSO negative control. Chemical structure of the compound is represented for each DRC. Hits and readouts have been selected among the ones with lowest variability, with the addition of TD-6450 and L-THP due to their high priority. […] Readout 2 has been selected for all of them except APPCL. […] Readout 2 used for all of them. […] Readout 2 used for all of them except TD-6450.

Test [2] has as its system P. falciparum gametocytes. Nature of the test: killing of mature gametocytes in the microsphiltration screen, dose-response. Format: cell-based. The note with it: Plasmodium falciparum, read-out: killing effect IC50. The text has this:
FIG. 1. Screening progression cascade. ReFrame library (12,805 compounds), Kinase Inhibitors Box (350 compounds) and Pathogen Box (400 compounds) were screened with “microsphiltration” against P. falciparum gametocytes. Hits from primary screening were further selected by dose-response analysis (DRA). Confirmed 82 hits were divided in 7 groups, based on their activity and molecular target (data not shown). Hits repartition is shown in parenthesis, along with the name of one representative hit for each group. […]
FIG. 2. […] For each well, killing and retention values are calculated and distributed in a “xy” graph. Two graphs are made for each plate: one using male and female gametocytes imaging (“readout 1”, left panel) and one using specific female gametocytes imaging (“readout 2”, right panel). […] The compounds beyond the upper confidence interval in both readouts are identified as hits. A) Plate number 15 of ReFRAME library: 8 hits with readout 1, 11 hits with readout 2, 4 hits (shared between the two readouts) finally identified. B) Plate number 9 of ReFRAME library: 7 hits with readout 1, 11 hits with readout 2, 5 hits finally individuated, including NITD609 (highlighted with an arrow). […]
FIG. 4. […] For each of them, a DRC for killing and retention was tracked and IC50 was calculated (one for readout 1, male and female gametocytes staining, one for readout 2, specific female gametocytes staining). […]

As a reminder, the IC50 is the concentration that inhibits the measured activity by half. As for `COc1cc2c(cc1OC)[C@@H]1Cc3ccc(OC)c(OC)c3CN1CC2` [L-THP, (13aS)-2,3,9,10-tetramethoxy-6,8,13,13a-tetrahydro-5H-isoquinolino[2,1-b]isoquinoline], the IC50 in test [1] was 5 nM.

Turning to `CC(C)(CN)c1nc(-c2ccc(Cl)c(O)c2)c(-c2ccnc(N)n2)[nH]1` [MMV030734], in test [1], the “activity by readout (readout 1 male and female gametocytes staining vs readout 2 specific female gametocytes staining)” value is “specifically actives on readout 2”.

As for `O=C(NCCN1CCCC1)c1cc(NCCCCN2CCC(F)(F)CC2)nc2ccc(Cl)cc12` [MMV667494], the “activity by readout (readout 1 male and female gametocytes staining vs readout 2 specific female gametocytes staining)” value in test [1] was “specifically actives on readout 2”.

Take `C[C@H]1Cc2c([nH]c3cc(Cl)c(F)cc23)[C@@]2(N1)C(=O)Nc1ccc(Cl)cc12` [NITD609, (1R,3S)-5′,7-Dichloro-6-fluoro-3-methyl-spiro[2,3,4,9-tetrahydropyrido[3,4-b]indole-1,3′-indoline]-2′-one]: the IC50 in test [1] amounted to 50 nM; in test [2], 100 nM.

As for `CNC(=O)N1C[C@@H](C)N(c2ccc(C(=O)Nc3ccc(-c4ccc(-c5c[nH]c([C@@H]6CCCN6C(=O)[C@@H](NC(=O)OC)C(C)C)n5)cc4)c(OC(F)(F)F)c3)cn2)C[C@@H]1C` [TD-6450, carbamic acid, N-[(1S)-1-[[(2S)-2-[5-[4′-[[[6-[(2R,5S)-2,5-dimethyl-4-[(methylamino)carbonyl]-1-piperazinyl]-3-pyridinyl]carbonyl]amino]-2′-(trifluoromethoxy) [1,1′-biphenyl]-4-yl]-1H-imidazol-2-yl]-1-pyrrolidinyl]carbonyl]-2-methylpropyl]-, methyl ester], in test [1], the IC50 is 600 nM.
